Experimental data published in patent US6790838B2, “Combinations and methods for promoting in vivo liver cell proliferation and enhancing in vivo liver-directed gene transduction” (Amgen, Inc., priority 1999, dated 2004).

Assays:
hepatocytes [1] = experiment: Hepatocyte proliferation in vivo by BrdU labeling after growth factor injection; parameters: species or system rat; conditions: for zones of the liver showing cell proliferation / time after injection having maximum liver cell proliferation: KGF 1 mg/kg or T3 4 mg/kg s.c.; for proportion of hepatocytes proliferating (BrdU labelled, S-phase) at 24 hours: T3 4 mg/kg and/or KGF 1 mg/kg s.c. at 0 hours, BrdU 1 hour before sacrifice; for dose producing maximal hepatocyte proliferation at 24 hours: dose response curves, subcutaneous injection, single factor; for time after injection having maximum liver cell proliferation: time course 6-30 hours
Protocol: Male Wistar rats weighing 200-250 grams were used. They were housed in a temperature and light controlled room (12 hour light/dark cycle) and were allowed water and food ad libitum.
T3 (Sigma, St. Louis, Mo. USA), 4 mg per kilogram of body weight was dissolved in 100 μl of 0.01 M NaOH in […] NaCl and administered by subcutaneous injection in the flank region of the animal.
Lyophilized KGF (full lenght recombinant KGF, AMGEN, Thousand Oaks, Calif.) 1 mg per kilogram of body weight was dissolved in 100 μl of a suitable buffer (0.01% by weight polyoxyethylenesorbitan monolaurate (TWEEN 20, Sigma) solution) and administered by subcutaneous injection in the flank region of the animal.
Measurement of liver cell proliferation was performed by BrdU labeling. BrdU (Sigma) (50 mg/kg dissolved in 800 μl of 0.9% NaCl) was injected intraperitoneally 1 hour prior to sacrifice. Livers of the animals were removed and fixed in 60% methanol, 30% chloroform and 10% glacial acetic acid before routine histological processing and embedding in wax blocks. The incorporation of BrdU into hepatic nuclei was detected in 4 μm thick sections using a mouse monoclonal antibody (Dako, Glostrup, Denmark), followed by a biotinilated rabbit anti-mouse secondary antibody (Dako). Visualization was achieved by the indirect peroxidase technique using diaminobenzidine tetrahydrochloride dihydrate (Aldrich Chemical, Milwaukee, Wis. USA) as a substrate. The labeling index and percentage of hepatic mitoses was determined by counting 2000 hepatocytes per section from consecutive light microscopy fields. See Forbes, et al., Gene Therapy 5:552-555 at 553 (1998)(incorporated herein by reference in its entirety).
Dose response curves were initially performed to identify the dose at which KGF and T3 independently cause maximum hepatocyte proliferation at 24 hours.
The times after injection having maximum liver cell proliferation (as measured by DNA synthesis), were also independently established for each of the individual factors. An injection corresponding to the dose producing maximal cell proliferation, as established in Example 1, was independently administered to 2 groups of subjects, one group for each factor. Dividing cells were labelled by administering BrdU 1 hour prior to sacrifice. At 6, 9, 12, 15, 18, 24, and 30 hours after injection three animals of each group were sacrificed and labelled liver cells counted.
While searching for a manner of producing a clinically acceptable level of liver cell proliferation without a need for prior injury to the liver, a series of experiments were performed whereby a combination of factors was administered to subjects and liver cell proliferation measured 24 hours after administration. […] factor combinations were independently tested, each combination in a different group of animals. A first group received 4 mg/kg T3 at 0 hours. A second group received 1 mg/kg KGF at 0 hours. A third group received 1 mg/kg KGF and 4 mg/kg T3 at 0 hours. A fourth group served as control and received the vehicle or diluent only.

hepatocytes [2] = assay type: in vivo, rat; conditions: for proportion of hepatocytes transfected/transduced (β-galactosidase): growth factor at hour 0, 1 ml retrovirus intraportally at 24 hours, killed 9 days after vector; for zones of the liver where transfected hepatocytes were found: intraportal vector at 24 hours, 9 days after vector
Protocol: Animals were anesthetized with isoflurane. A midline laparotomy was performed, the bowel was deflected to the left and wrapped in normal saline-soaked gauze. The portal vein and hepatic artery were clamped using micro-aneurysm clips, the portal vein was cannulated with a 26-gauge needle proximal to the clip and 1 ml of retroviral supernatant was injected over 5 minutes. Hemostasis was achieved by direct pressure to the portal vein and topical thrombin (Sigma) application. The clips were removed and the abdomen sutured, and the animals were allowed to recover in a warm, quite environment. […] For peripheral vein injection, 1 ml of the retrovirus/DOGS complex was injected via tail vein as a bolus.
Transduction of liver cells was measured by β-galactosidase activity. Animals were anesthetized and sacrificed by exsanguination. The liver was removed and frozen in liquid nitrogen. Ten-micron frozen sections were cut on to glass slides, fixed in a solution of 1.25% glutaraldehyde at 4° C., washed with phosphate buffered saline (PBS) then covered in X-gal (Gibco BRL, Grand Island, N.Y.) solution (1 mg/ml, pH 7.4) and incubated overnight at 37° C. Sections were then washed in PBS, counterstained lightly with eosin or carmalum stain, dehydrated and mounted in pertex (Cellpath, Hemel Hempstead, UK). The proportion of hepatocytes expressing nuclear β-galactosidase was calculated by counting 2000 hepatocytes per section from three separate areas.
At hour 0, several groups of four rats received an administration of either a single growth factor (either 4 mg/kg T3 or 1 mg/kg KGF) or the combination of 4 mg/kg T3/1 mg/kg KGF. A control group of three rats received injections of the growth factor diluents only. At 24 hours all rats were injected intraportally with 1 ml of retrovirus during temporary hepatic artery and portal vein occlusion. All rats were killed 9 days following vector administration.

hepatocytes [3] = conditions: retroviral vector given after growth factor administration; literature reports (Bosch 1996, Kosai 1998, Forbes 1998); cited from earlier work

Row | Molecule | zones of the liver showing cell proliferation (hepatocytes [1]) | proportion of hepatocytes proliferating (BrdU labelled, S-phase) at 24 hours (hepatocytes [1]) | dose producing maximal hepatocyte proliferation at 24 hours (hepatocytes [1]) [mg/kg] | time after injection having maximum liver cell proliferation (hepatocytes [1]) [h] | proportion of hepatocytes transfected/transduced (β-galactosidase) (hepatocytes [2]) | zones of the liver where transfected hepatocytes were found (hepatocytes [2]) | liver cells (hepatocytes) transduced in vivo (hepatocytes [3])
1 | N[C@@H](Cc1cc(I)c(Oc2ccc(O)c(I)c2)c(I)c1)C(=O)O [T3, tri-iodothyronine, reference compound] | predominantly in the mid-zonal region | approximately 10% | 4 | 24 | approximately 1.2% | mostly found in the mid-zonal region | about 1.3%
2 | hepatocyte growth factor: hepatocyte growth factor, cited from Kosai et al. | – | – | – | – | – | – | 1.3%
3 | KGF: full length recombinant keratinocyte growth factor polypeptide (AMGEN) (protein, UniProt P21781 1-194, looked up, full-length) MHKWILTWILPTLLYRSCFHIICLVGTISLACNDMTPEQMATNVNCSSPERHTRSYDYMEGGDIRVRRLFCRTQWYLRIDKRGKVKGTQEMKNNYNIMEIRTVAVGIVAIKGVESEFYLAMNKEGKLYAKKECNEDCNFKELILENHYNTYASAKWTHNGGEMFVALNQKGIPVRGKKTKKEQKTAHFLPMAIT | all zones of the liver | approximately 9% | 1 | 24 | approximately 1% | found in all zones of the liver | 2%
